Experimental data: patent publication US20260116889A1, “MACROCYCLIC PYRIMIDINE DERIVATIVE, METHOD FOR PREPARING SAME, AND PHARMACEUTICAL COMPOSITION FOR PREVENTION OR TREATMENT OF NEURODEGENERATIVE DISEASE CONTAINING SAME AS ACTIVE INGREDIENT” (WHAN IN PHARMACEUTICAL CO., LTD., priority 2021, published 2026)

Tests used:
[1] = target: T1, wild type LRRK2 (leucine-rich repeat kinase 2) (Homo sapiens, UniProt Q5S007); test: HotSpot radiometric kinase assay (Reaction Biology), LRRK2 wild type inhibitory activity; type: biochemical; settings: 10 μM ATP, 25° C., 120 min
T1 construct: purchased Reaction Biology Corporation
Protocol: (§1) The experimental method was as follows.
(§2) Specific kinase/substrate pairs were prepared in reaction buffer (20 mM Hepes pH 7.5, 10 mM MgCl2, 1 mM EGTA, 0.02% Brij35, 0.02 mg/ml BSA, 0.1 mM Na3VO4, 2 mM DTT, 1% DMSO) along with the required cofactors. The compounds were transferred to the reaction, and after 20 min, a mixture of ATP (Sigma) and ^33P ATP (PerkinElmer) was added to a final concentration of 10 μM. The reaction was carried out at 25° C. for 120 min and then dropped onto P81 ion exchange filter paper (Whatman). […] IC50 values were obtained using Prism (GraphPad Software).

[2] = target: T2, G2019S mutant of LRRK2 (leucine-rich repeat kinase 2) (Homo sapiens, UniProt Q5S007, G2019S); test: HotSpot radiometric kinase assay (Reaction Biology), LRRK2 G2019S mutant inhibitory activity; type: biochemical; settings: 10 μM ATP, 25° C., 120 min
T2 construct: purchased Reaction Biology Corporation
Protocol: as §1, §2

T2 sequence (Q5S007 whole entry G2019S): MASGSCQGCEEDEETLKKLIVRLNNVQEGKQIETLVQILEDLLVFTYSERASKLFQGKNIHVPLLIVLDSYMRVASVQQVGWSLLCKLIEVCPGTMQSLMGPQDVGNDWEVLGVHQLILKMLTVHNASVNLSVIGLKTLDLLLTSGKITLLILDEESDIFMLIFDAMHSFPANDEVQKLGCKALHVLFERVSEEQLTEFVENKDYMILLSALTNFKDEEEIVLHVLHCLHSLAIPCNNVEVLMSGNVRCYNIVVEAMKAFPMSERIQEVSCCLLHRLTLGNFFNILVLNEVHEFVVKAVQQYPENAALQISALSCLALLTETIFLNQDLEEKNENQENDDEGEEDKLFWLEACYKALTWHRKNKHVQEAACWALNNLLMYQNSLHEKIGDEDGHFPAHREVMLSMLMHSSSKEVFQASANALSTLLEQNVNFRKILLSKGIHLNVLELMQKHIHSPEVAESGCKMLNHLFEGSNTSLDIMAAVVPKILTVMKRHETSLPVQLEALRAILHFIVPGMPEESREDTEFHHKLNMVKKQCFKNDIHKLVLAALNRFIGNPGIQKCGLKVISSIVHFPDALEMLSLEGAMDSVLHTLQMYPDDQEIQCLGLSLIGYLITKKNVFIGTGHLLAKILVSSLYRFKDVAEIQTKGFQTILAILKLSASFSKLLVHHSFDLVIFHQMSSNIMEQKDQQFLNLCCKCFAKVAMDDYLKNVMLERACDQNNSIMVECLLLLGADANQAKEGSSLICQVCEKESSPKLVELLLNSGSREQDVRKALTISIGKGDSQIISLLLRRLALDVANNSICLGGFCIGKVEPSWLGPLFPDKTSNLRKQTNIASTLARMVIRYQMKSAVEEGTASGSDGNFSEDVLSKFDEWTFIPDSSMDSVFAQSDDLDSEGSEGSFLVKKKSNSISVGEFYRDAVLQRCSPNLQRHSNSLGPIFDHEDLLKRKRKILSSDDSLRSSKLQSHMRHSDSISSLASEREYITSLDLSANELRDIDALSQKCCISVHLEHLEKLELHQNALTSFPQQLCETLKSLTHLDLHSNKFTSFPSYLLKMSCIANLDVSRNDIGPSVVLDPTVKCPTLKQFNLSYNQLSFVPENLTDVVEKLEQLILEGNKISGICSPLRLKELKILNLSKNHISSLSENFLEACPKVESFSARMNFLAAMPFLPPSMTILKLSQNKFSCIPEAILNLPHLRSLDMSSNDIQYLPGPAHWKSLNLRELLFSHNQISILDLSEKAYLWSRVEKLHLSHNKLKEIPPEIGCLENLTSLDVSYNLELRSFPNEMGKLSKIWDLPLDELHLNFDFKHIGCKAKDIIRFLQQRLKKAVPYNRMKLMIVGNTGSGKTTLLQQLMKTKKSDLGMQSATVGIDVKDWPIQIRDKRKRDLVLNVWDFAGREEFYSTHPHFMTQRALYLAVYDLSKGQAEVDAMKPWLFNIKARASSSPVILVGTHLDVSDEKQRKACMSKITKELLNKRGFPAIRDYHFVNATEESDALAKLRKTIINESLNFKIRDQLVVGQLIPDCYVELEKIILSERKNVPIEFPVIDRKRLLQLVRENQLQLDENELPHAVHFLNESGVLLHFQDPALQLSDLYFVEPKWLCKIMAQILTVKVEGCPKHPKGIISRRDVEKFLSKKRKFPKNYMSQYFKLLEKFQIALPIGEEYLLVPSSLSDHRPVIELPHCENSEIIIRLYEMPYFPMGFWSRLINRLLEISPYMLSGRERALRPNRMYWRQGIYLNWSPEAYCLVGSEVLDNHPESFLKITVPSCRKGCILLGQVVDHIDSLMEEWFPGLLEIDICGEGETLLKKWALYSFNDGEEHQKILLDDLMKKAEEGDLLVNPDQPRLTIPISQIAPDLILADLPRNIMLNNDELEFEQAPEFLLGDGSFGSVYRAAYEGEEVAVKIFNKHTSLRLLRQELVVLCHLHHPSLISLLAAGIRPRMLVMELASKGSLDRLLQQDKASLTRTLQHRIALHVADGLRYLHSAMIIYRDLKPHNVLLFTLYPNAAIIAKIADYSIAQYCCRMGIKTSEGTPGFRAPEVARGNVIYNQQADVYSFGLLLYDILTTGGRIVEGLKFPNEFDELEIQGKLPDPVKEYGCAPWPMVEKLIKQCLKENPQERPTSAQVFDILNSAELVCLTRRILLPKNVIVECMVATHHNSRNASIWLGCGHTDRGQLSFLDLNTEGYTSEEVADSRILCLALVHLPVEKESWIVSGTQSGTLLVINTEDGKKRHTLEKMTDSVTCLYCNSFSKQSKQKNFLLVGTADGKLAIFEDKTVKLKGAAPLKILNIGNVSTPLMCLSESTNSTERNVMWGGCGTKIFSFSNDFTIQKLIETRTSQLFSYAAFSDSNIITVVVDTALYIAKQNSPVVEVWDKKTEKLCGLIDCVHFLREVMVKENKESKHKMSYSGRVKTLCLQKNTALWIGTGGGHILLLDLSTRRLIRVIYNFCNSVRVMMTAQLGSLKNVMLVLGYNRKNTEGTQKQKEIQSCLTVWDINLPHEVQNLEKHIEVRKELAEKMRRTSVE
T1 sequence (Q5S007 whole entry): as the sequence (Q5S007 whole entry G2019S) above, with S2019G counted along it

Row | IC50 [1] [nM] | IC50 [2] [nM] | SMILES
1 | 5.06 | 0.98 | COc1ccc2cc1Nc1ncc(Cl)c(n1)NCCN(C(C)C)C2=O [Example 22, 1^5-chloro-5-isopropyl-3^6-methoxy-2,5,8-triaza-1 (2,4)-pyrimidina-3 (1,3)-benzenacyclooctaphane-4-one]
2 | 0.667 | < 0.254 | COc1ccc2cc1Nc1ncc(Cl)c(n1)N(C)CCCN(C)C2=O [Example 23, 1^5-chloro-3^6-methoxy-5,9-dimethyl-2,5,9-triaza-1 (2,4)-pyrimidina-3 (1,3)-benzenacyclononapane-4-one;2,2,2-trifluoroacetate]
3 | 62.9 | 25.7 | COc1ccc2cc1Nc1ncc(C(F)(F)F)c(n1)N(C)CCN(C)C2=O [Example 25, 3^6-methoxy-5,8-dimethyl-1^5-(trifluoromethyl)-2,5,8-triaza-1 (2,4)-pyrimidina-3 (1,3)-benzenacyclooctaphane-4-one;2,2,2-trifluoroacetate]
4 | 5.42 | 2 | COc1ccc2cc1Nc1ncc(Cl)c(n1)N(C)CCCCN(C)C2=O [Example 27, 1^5-chloro-3^6-methoxy-5,10-dimethyl-2,5,10-triaza-1 (2,4)-pyrimidina-3 (1,3)-benzenacyclodecarphane-4-one;2,2,2-trifluoroacetate]
5 | 1.79 | 0.72 | COc1ccc2cc1Nc1ncc(C(F)(F)F)c(n1)N(C)CCCCN(C)C2=O [Example 29, 3^6-methoxy-5,10-dimethyl-1^5-(trifluoromethyl)-2,5,10-triaza-1 (2,4)-pyrimidina-3 (1,3)-benzenacyclodecarphane-4-one;2,2,2-trifluoroacetate]

The next lines start with the compound.

Row | SMILES | IC50 [1] [nM] | IC50 [2] [nM]
6 | CN1CCNc2nc(ncc2Cl)Nc2cccc(c2)C1=O [Example 2, 1^5-chloro-5-methyl-2,5,8-triaza-1 (2,4)-pyrimidina-3 (1,3)-benzenacyclooctaphane-4-one] | 17 | 19.3
7 | O=C1NCCCCNc2nc(ncc2Cl)Nc2cccc1c2 [Example 3, 1^5-chloro-2,5,10-triaza-1 (2,4)-pyrimidina-3 (1,3)-benzenacyclodecarphane-4-one] | 15.9 | 13.1
8 | COc1ccc2cc1Nc1ncc(F)c(n1)NCCN(C)C2=O [Example 7, 1^5-fluoro-3^6-methoxy-5-methyl-2,5,8-triaza-1 (2,4)-pyrimidina-3 (1,3)-benzenacyclooctaphane-4-one] | 35.5 | 34.1
9 | COc1ccc2cc1C(=O)N(C)CCNc1nc(ncc1Cl)N2 [Example 9, 1^5-chloro-3^4-methoxy-5-methyl-2,5,8-triaza-1 (2,4)-pyrimidina-3 (1,3)-benzenacyclooctaphane-4-one;2,2,2-trifluoroacetate] | 91.1 | 79.7
10 | COc1ccc2cc1C(=O)N(C)CCCCNc1nc(ncc1Cl)N2 [Example 18, 1^5-chloro-3^4-methoxy-5-methyl-2,5,10-triaza-1 (2,4)-pyrimidina-3 (1,3)-benzenacyclodecarphane-4-one;2,2,2-trifluoroacetate] | 142 | 145
11 | CCc1ccc2cc1Nc1ncc(Cl)c(n1)NCCCCN(C)C2=O [Example 19, 1^5-chloro-3^6-ethyl-5-methyl-2,5,10-triaza-1 (2,4)-pyrimidina-3 (1,3)-benzenacyclodecarphane-4-one;2,2,2-trifluoroacetate] | 13.4 | 6.86
12 | COc1ccc2cc1Nc1ncc(Cl)c(n1)N(C)CCN(C)C2=O [Example 20, 1^5-chloro-3^6-methoxy-5,8-dimethyl-2,5,8-triaza-1 (2,4)-pyrimidina-3 (1,3)-benzenacyclooctaphane-4-one;2,2,2-trifluoroacetate] | 3.44 | 3.51
13 | CCN1CCNc2nc(ncc2Cl)Nc2cc(ccc2OC)C1=O [Example 21, 1^5-chloro-5-ethyl-3^6-methoxy-2,5,8-triaza-1 (2,4)-pyrimidina-3 (1,3)-benzenacyclooctaphane-4-one;2,2,2-trifluoroacetate] | 11.1 | 3.09
